In patent US20190315823A1, “SMALL CATIONIC ANTI-BIOFILM AND IDR PEPTIDES” (priority 2013, published 2019):
Ends that are not written are not given here.

Experiments:
[1] = system: human peripheral blood mononuclear cells (MCP-1); test: SPOT-synthesized derivative screen: production of chemokine MCP-1; type: cell-based; details: Table 12, No LPS, human PBMC, peptide at ~18-24 μM; for MCP1: background subtracted 139 (HH2 derivatives), 170 (1018 derivatives), 242 (1002 and hybrid peptides) pg/ml
How it was run: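 PBMC from heparinized healthy-donor venous blood, Ficoll-separated, cultured at 0.75 to 1×10^6 cells/ml, 37 °C, 5% CO2, under the treatment regimens. MCP-1 in cell-free supernatants measured by capture ELISA.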

[2] = system: LPS-stimulated human peripheral blood mononuclear cells (IL1-β); type: cell-based; details: Table 12, cells stimulated with 10 ng/ml LPS; for IL1β Production: LPS alone 1313 (HH2 derivatives), 1927 (1018 derivatives), 2455 (1002 and hybrid peptides) pg/ml
[3] = system: methicillin resistant Staphylococcus aureus (MRSA) biofilm; details: approximate peptide concentration […] (around 3 μg/ml); compared to untreated samples
How it was run: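 Static biofilm assay: 1/100 dilutions of overnight cultures grown in BM2 medium (pH 7, glucose, Casamino Acids) or Luria Broth with peptide added at time zero. After 22–46 h, adherent biofilm was stained with crystal violet and read at 595 nm. Some peptides were also tested on K. pneumoniae under flow in a Bioflux system.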

## HH2-R5: single substituted HH2 peptide (VQLRRRVAVIRA-NH2)
[1]
  Fold increase in MCP1 cf. untreated cells: 4.0
  MCP1: 515 pg/mL
[2]
  Fold change in IL1β relative to no peptide LPS stimulated cells: 1.66
  IL1β Production: 2186 pg/mL
[3]
  % Biofilm inhibition: 0%

## 1018-K10: single substituted 1018 peptide (VRLIVAVRIKRR-NH2) [Peptide 1018-K10]
[1]
  Fold increase in MCP1 cf. untreated cells: 3.3
  MCP1: 390 pg/mL
[2]
  Fold change in IL1β relative to no peptide LPS stimulated cells: 0.24
  IL1β Production: 310 pg/mL
[3]
  % Biofilm inhibition: 63%

## 1002-W2: single substituted 1002 peptide (VWRWLIVWRIRK-NH2) [Peptide 1002-W2]
[1]
  Fold increase in MCP1 cf. untreated cells: 11.8
  MCP1: 2611.5 pg/mL
[2]
  Fold change in IL1β relative to no peptide LPS stimulated cells: 0.05
  IL1β Production: 127 pg/mL
[3]
  % Biofilm inhibition: 61%

## 1002-R6: single substituted 1002 peptide (VQRWLRVWRIRK-NH2) [Peptide 1002-R6]
[1]
  Fold increase in MCP1 cf. untreated cells: 1.0
  MCP1: 1.8 pg/mL
[2]
  Fold change in IL1β relative to no peptide LPS stimulated cells: 0.25
  IL1β Production: 605 pg/mL
[3]
  % Biofilm inhibition: 13%

## 1018-V6: single substituted 1018 peptide (VRLIVVVRIWRR-NH2) [Peptide 1018-V6]
[1]
  Fold increase in MCP1 cf. untreated cells: 1.6
  MCP1: 110 pg/mL
[2]
  Fold change in IL1β relative to no peptide LPS stimulated cells: 0.17
  IL1β Production: 226 pg/mL
[3]
  % Biofilm inhibition: 70%

## 1018-R4: single substituted 1018 peptide (VRLRVAVRIWRR-NH2) [Peptide 1018-R4]
[1]
  Fold increase in MCP1 cf. untreated cells: 0.6
  MCP1: -65 pg/mL
[2]
  Fold change in IL1β relative to no peptide LPS stimulated cells: 0.47
  IL1β Production: 615 pg/mL
[3]
  % Biofilm inhibition: 58%

## HH2-Q11: single substituted HH2 peptide (VQLRIRVAVIQA-NH2)
[1]
  Fold increase in MCP1 cf. untreated cells: 17
  MCP1: 2759 pg/mL
[2]
  Fold change in IL1β relative to no peptide LPS stimulated cells: 0.78
  IL1β Production: 1020 pg/mL
[3]
  % Biofilm inhibition: 63%

## 1002-W3: single substituted 1002 peptide (VQWWLIVWRIRK-NH2) [Peptide 1002-W3]
[1]
  Fold increase in MCP1 cf. untreated cells: 1.4
  MCP1: 90.4 pg/mL
[2]
  Fold change in IL1β relative to no peptide LPS stimulated cells: 0.05
  IL1β Production: 127 pg/mL
[3]
  % Biofilm inhibition: 68%

## 1018-V2: single substituted 1018 peptide (VVLIVAVRIWRR-NH2) [Peptide 1018-V2]
[1]
  Fold increase in MCP1 cf. untreated cells: 1.3
  MCP1: 56 pg/mL
[2]
  Fold change in IL1β relative to no peptide LPS stimulated cells: 0.12
  IL1β Production: 159 pg/mL
[3]
  % Biofilm inhibition: 67%

## 1018-K9: single substituted 1018 peptide (VRLIVAVRKWRR-NH2) [Peptide 1018-K9]
[1]
  Fold increase in MCP1 cf. untreated cells: 1.1
  MCP1: 15 pg/mL
[2]
  Fold change in IL1β relative to no peptide LPS stimulated cells: 0.23
  IL1β Production: 300 pg/mL
[3]
  % Biofilm inhibition: 60%

## 1018-L8: single substituted 1018 peptide (VRLIVAVLIWRR-NH2) [Peptide 1018-L8]
[1]
  Fold increase in MCP1 cf. untreated cells: 0.5
  MCP1: -83 pg/mL
[2]
  Fold change in IL1β relative to no peptide LPS stimulated cells: 0.42
  IL1β Production: 553 pg/mL
[3]
  % Biofilm inhibition: 40%

## HH2-I1: single substituted HH2 peptide (IQLRIRVAVIRA-NH2)
[1]
  Fold increase in MCP1 cf. untreated cells: 51
  MCP1: 8573 pg/mL
[2]
  Fold change in IL1β relative to no peptide LPS stimulated cells: 0.84
  IL1β Production: 1103 pg/mL
[3]
  % Biofilm inhibition: 73%

## 1002-K7: single substituted 1002 peptide (VQRWLIKWRIRK-NH2) [Peptide 1002-K7]
[1]
  Fold increase in MCP1 cf. untreated cells: 0.9
  MCP1: -36.2 pg/mL
[2]
  Fold change in IL1β relative to no peptide LPS stimulated cells: 0.12
  IL1β Production: 302 pg/mL
[3]
  % Biofilm inhibition: 28%

## HH2-I4: single substituted HH2 peptide (VQLIIRVAVIRA-NH2)
[1]
  Fold increase in MCP1 cf. untreated cells: 11
  MCP1: 1669 pg/mL
[2]
  Fold change in IL1β relative to no peptide LPS stimulated cells: 0.58
  IL1β Production: 760 pg/mL
[3]
  % Biofilm inhibition: 47%

## 1018-A2: single substituted 1018 peptide (VALIVAVRIWRR-NH2) [Peptide 1018-A2]
[1]
  Fold increase in MCP1 cf. untreated cells: 0.6
  MCP1: -65 pg/mL
[2]
  Fold change in IL1β relative to no peptide LPS stimulated cells: 0.10
  IL1β Production: 127 pg/mL
[3]
  % Biofilm inhibition: 64%

## 1018-Q12: single substituted 1018 peptide (VRLIVAVRIWRQ-NH2) [Peptide 1018-Q12]
[1]
  Fold increase in MCP1 cf. untreated cells: 0.8
  MCP1: -28 pg/mL
[2]
  Fold change in IL1β relative to no peptide LPS stimulated cells: 0.50
  IL1β Production: 655 pg/mL
[3]
  % Biofilm inhibition: 57%

## HH2-V6: single substituted HH2 peptide (VQLRIVVAVIRA-NH2)
[1]
  Fold increase in MCP1 cf. untreated cells: 40
  MCP1: 6624 pg/mL
[2]
  Fold change in IL1β relative to no peptide LPS stimulated cells: 0.53
  IL1β Production: 694 pg/mL
[3]
  % Biofilm inhibition: 39%

## 1002-W1: single substituted 1002 peptide (WQRWLIVWRIRK-NH2) [Peptide 1002-W1]
[1]
  Fold increase in MCP1 cf. untreated cells: 3.6
  MCP1: 622.0 pg/mL
[2]
  Fold change in IL1β relative to no peptide LPS stimulated cells: 0.05
  IL1β Production: 127 pg/mL
[3]
  % Biofilm inhibition: 76%

## 1018-W4: single substituted 1018 peptide (VRLWVAVRIWRR-NH2) [Peptide 1018-W4]
[1]
  Fold increase in MCP1 cf. untreated cells: 1.2
  MCP1: 29 pg/mL
[2]
  Fold change in IL1β relative to no peptide LPS stimulated cells: 0.14
  IL1β Production: 182 pg/mL
[3]
  % Biofilm inhibition: 67%

## 1002-I8: single substituted 1002 peptide (VQRWLIVIRIRK-NH2) [Peptide 1002-I8]
[1]
  Fold increase in MCP1 cf. untreated cells: 6.7
  MCP1: 1393.2 pg/mL
[2]
  Fold change in IL1β relative to no peptide LPS stimulated cells: 0.06
  IL1β Production: 144 pg/mL
[3]
  % Biofilm inhibition: 69%

## 1018-I6: single substituted 1018 peptide (VRLIVIVRIWRR-NH2) [Peptide 1018-I6]
[1]
  Fold increase in MCP1 cf. untreated cells: 1.6
  MCP1: 110 pg/mL
[2]
  Fold change in IL1β relative to no peptide LPS stimulated cells: 0.44
  IL1β Production: 582 pg/mL
[3]
  % Biofilm inhibition: 65%

## HH2-G7: single substituted HH2 peptide (VQLRIRGAVIRA-NH2)
[1]
  Fold increase in MCP1 cf. untreated cells: 1.5
  MCP1: 78 pg/mL
[2]
  Fold change in IL1β relative to no peptide LPS stimulated cells: 1.02
  IL1β Production: 1344 pg/mL
[3]
  % Biofilm inhibition: 33%

## 1018-A1: single substituted 1018 peptide (ARLIVAVRIWRR-NH2) [Peptide 1018-A1]
[1]
  Fold increase in MCP1 cf. untreated cells: 1.9
  MCP1: 161 pg/mL
[2]
  Fold change in IL1β relative to no peptide LPS stimulated cells: 0.13
  IL1β Production: 170 pg/mL
[3]
  % Biofilm inhibition: 51%

## 1002-A5: single substituted 1002 peptide (VQRWAIVWRIRK-NH2) [Peptide 1002-A5]
[1]
  Fold increase in MCP1 cf. untreated cells: 0.9
  MCP1: -36.2 pg/mL
[2]
  Fold change in IL1β relative to no peptide LPS stimulated cells: 0.07
  IL1β Production: 182 pg/mL
[3]
  % Biofilm inhibition: 70%
